For assay [1], the target named is T1, Mitogen-activated protein kinase kinase kinase 12 (Homo sapiens) (UniProt Q12852).
T1 sequence (whole entry): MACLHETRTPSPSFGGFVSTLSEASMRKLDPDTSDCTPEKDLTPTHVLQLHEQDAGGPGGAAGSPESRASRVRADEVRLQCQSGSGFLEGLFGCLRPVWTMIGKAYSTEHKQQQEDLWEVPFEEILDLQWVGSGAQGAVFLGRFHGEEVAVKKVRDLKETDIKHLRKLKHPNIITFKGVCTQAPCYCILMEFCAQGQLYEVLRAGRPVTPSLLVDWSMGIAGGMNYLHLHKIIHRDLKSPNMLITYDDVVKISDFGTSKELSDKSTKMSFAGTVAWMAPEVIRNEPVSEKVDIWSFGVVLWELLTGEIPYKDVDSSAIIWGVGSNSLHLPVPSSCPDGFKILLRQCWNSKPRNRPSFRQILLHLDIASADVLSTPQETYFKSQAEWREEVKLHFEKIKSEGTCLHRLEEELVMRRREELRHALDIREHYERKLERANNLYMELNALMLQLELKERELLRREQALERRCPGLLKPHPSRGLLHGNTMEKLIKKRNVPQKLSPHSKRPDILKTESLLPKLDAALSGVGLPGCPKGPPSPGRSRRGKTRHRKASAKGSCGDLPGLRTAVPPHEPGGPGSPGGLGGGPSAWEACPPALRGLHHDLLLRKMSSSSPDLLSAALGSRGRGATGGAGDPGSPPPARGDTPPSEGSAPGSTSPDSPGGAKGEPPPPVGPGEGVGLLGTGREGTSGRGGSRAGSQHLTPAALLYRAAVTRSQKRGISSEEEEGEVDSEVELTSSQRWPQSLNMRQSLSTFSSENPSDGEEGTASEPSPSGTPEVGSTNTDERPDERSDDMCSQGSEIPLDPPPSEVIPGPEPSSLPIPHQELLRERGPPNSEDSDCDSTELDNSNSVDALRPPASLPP
Briefly: Selectivity interaction (Ambit KINOMEscan and KiNATiv profiling in Jurkat cells) EUB0000090b MAP3K12. It counts as cell-based. The following applies: at 1 µM.

The target of assay [2] is Serine/threonine-protein kinase 24 (Homo sapiens) (UniProt Q9Y6E0). In words: Selectivity interaction (KinomeScan (DiscoverX)) EUB0000699a STK24. To be noted: at 10 µM.
For assay [3], the target named is Platelet-derived growth factor receptor beta (Homo sapiens, UniProt P09619). Briefly: Selectivity interaction (KinomeScan (DiscoverX)) EUB0000655a PDGFRB. The following applies: at 10 µM.
The target in assay [4] is Histone-lysine N-methyltransferase 2A (Homo sapiens) (UniProt Q03164). Briefly: Selectivity interaction (Bromodomain panel (DSF asssay)) EUB0000270b MLL.
Assay [5] deals with T2, Megakaryocyte-associated tyrosine-protein kinase (Homo sapiens) (UniProt P42679).
T2 sequence (whole entry): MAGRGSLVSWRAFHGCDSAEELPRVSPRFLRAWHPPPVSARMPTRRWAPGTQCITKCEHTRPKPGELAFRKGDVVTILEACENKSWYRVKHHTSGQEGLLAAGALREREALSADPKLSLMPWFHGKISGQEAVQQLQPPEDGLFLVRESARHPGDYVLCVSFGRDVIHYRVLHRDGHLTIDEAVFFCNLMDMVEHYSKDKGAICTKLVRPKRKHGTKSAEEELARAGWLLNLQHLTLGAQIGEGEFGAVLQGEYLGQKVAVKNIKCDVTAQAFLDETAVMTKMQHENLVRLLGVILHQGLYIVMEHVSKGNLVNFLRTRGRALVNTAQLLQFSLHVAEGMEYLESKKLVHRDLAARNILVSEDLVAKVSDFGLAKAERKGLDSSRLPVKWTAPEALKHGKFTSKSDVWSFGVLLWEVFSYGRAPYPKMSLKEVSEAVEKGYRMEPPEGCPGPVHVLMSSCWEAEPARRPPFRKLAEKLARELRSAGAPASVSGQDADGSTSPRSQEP
In words: Selectivity interaction (Kinase panel (Z-LYTE Assay)) EUB0001632a MATK. The following applies: at 10 µM.

Assay [6] has as its target T3, Serine/threonine-protein kinase Sgk1 (Homo sapiens) (UniProt O00141).
T3 sequence (whole entry): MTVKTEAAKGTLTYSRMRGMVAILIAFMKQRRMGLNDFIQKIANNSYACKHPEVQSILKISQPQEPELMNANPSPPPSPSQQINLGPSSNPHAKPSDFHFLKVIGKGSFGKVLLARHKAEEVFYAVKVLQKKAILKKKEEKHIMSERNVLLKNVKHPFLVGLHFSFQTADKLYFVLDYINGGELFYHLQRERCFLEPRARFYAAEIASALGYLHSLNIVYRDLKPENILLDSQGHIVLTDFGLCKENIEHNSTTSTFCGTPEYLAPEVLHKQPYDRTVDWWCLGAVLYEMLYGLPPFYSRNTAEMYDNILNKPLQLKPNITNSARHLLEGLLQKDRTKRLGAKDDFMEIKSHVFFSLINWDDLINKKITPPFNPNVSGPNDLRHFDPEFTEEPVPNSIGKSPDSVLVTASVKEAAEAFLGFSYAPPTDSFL
Briefly: Selectivity interaction (KinomeScan (DiscoverX)) EUB0000229b SGK1. The following applies: at 10 µM.

Assay [7] deals with Tyrosine-protein kinase Fyn (Homo sapiens) (UniProt P06241). In words: Selectivity interaction (ActivX KiNativ screen (ex vivo kinase selectivity in human PBMCs)) EUB0001619a FYN. Type of assay: cell-based. To be noted: PBMC, at 1 µM.
Sequence of Tyrosine-protein kinase Fyn (Homo sapiens) (P06241 2-537 limits assumed): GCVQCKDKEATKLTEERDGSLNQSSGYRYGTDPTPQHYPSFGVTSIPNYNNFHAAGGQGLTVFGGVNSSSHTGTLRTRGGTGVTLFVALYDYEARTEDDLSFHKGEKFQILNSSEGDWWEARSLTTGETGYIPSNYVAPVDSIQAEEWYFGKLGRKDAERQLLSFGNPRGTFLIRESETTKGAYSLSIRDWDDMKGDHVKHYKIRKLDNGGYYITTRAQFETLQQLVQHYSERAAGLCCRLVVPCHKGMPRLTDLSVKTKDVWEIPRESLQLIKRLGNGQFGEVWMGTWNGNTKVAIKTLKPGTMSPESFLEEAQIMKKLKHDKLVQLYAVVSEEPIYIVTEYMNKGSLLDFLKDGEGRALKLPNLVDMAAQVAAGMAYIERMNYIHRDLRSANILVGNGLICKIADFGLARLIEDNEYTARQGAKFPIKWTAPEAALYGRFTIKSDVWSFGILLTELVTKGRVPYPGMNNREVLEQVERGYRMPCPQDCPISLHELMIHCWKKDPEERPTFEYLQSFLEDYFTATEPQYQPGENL

Sequence of Histone-lysine N-methyltransferase 2A (Homo sapiens) (Q03164 1-2718 limits assumed): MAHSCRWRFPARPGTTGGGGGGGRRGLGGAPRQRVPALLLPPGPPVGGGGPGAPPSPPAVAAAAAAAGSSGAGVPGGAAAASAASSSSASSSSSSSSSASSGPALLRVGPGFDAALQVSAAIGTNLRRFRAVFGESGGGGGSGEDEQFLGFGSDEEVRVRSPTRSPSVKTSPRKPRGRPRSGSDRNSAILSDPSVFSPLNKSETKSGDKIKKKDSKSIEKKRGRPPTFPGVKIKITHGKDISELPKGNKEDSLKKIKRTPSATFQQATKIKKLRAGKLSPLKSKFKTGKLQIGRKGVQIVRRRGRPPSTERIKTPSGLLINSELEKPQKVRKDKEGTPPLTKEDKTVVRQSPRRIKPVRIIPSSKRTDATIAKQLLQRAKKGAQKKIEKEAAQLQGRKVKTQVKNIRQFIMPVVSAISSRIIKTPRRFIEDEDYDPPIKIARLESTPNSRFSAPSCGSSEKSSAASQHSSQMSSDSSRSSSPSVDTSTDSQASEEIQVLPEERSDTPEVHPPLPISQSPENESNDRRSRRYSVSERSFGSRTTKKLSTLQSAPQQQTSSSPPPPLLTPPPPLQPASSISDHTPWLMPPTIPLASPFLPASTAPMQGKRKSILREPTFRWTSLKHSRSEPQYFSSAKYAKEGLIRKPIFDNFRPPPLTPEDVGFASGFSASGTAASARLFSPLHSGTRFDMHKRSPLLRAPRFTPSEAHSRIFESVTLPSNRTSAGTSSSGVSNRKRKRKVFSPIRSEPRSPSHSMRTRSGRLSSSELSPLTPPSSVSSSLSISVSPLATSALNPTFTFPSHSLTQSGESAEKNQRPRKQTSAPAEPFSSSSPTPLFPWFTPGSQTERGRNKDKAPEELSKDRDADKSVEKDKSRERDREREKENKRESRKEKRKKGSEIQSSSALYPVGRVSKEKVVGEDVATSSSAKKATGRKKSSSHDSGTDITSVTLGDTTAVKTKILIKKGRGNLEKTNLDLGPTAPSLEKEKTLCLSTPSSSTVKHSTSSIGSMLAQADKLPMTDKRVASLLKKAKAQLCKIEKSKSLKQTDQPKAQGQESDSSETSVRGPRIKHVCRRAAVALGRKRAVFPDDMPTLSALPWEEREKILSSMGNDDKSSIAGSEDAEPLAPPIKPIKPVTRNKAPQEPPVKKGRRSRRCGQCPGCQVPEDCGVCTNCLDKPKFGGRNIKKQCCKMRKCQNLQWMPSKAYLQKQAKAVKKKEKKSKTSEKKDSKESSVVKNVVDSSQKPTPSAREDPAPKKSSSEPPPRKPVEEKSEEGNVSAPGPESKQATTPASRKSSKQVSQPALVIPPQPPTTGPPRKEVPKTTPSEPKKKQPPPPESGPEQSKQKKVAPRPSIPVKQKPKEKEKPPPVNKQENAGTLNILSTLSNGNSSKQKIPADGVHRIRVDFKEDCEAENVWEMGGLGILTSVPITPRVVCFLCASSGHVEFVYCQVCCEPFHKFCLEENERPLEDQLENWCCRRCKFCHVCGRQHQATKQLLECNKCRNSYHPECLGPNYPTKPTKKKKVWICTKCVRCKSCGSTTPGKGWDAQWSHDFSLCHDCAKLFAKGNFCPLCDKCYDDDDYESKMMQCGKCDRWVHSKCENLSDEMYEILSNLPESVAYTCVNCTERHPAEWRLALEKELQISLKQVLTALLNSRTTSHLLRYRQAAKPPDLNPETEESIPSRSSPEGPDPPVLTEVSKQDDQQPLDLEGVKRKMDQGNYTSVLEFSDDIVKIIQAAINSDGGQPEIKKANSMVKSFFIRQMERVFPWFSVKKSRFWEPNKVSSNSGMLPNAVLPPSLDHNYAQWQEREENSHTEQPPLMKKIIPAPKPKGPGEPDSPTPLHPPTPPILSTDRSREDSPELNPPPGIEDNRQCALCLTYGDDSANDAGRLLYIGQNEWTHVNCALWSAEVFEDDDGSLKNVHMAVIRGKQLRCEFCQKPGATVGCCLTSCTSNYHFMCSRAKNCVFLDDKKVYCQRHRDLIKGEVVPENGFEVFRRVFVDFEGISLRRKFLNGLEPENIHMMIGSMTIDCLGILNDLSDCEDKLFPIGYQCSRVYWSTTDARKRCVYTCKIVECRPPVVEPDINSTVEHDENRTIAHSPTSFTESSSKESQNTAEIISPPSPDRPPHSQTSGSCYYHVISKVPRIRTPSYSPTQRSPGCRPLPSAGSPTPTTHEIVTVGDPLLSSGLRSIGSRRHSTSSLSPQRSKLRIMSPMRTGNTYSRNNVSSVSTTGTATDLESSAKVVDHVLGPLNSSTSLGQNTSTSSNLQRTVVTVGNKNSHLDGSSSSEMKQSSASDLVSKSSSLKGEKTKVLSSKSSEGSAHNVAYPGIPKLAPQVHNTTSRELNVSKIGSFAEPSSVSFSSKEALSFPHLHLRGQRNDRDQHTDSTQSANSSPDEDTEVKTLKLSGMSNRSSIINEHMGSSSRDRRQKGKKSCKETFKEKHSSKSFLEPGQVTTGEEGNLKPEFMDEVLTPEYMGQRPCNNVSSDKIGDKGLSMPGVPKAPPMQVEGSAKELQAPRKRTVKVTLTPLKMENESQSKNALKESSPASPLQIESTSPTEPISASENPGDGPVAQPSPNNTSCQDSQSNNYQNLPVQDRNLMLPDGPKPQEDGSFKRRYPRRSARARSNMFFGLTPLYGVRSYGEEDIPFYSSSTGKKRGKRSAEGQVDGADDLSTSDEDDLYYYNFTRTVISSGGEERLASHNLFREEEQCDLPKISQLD
Sequence of Histone-lysine N-methyltransferase 2A (Homo sapiens) (Q03164 2719-3969 limits assumed): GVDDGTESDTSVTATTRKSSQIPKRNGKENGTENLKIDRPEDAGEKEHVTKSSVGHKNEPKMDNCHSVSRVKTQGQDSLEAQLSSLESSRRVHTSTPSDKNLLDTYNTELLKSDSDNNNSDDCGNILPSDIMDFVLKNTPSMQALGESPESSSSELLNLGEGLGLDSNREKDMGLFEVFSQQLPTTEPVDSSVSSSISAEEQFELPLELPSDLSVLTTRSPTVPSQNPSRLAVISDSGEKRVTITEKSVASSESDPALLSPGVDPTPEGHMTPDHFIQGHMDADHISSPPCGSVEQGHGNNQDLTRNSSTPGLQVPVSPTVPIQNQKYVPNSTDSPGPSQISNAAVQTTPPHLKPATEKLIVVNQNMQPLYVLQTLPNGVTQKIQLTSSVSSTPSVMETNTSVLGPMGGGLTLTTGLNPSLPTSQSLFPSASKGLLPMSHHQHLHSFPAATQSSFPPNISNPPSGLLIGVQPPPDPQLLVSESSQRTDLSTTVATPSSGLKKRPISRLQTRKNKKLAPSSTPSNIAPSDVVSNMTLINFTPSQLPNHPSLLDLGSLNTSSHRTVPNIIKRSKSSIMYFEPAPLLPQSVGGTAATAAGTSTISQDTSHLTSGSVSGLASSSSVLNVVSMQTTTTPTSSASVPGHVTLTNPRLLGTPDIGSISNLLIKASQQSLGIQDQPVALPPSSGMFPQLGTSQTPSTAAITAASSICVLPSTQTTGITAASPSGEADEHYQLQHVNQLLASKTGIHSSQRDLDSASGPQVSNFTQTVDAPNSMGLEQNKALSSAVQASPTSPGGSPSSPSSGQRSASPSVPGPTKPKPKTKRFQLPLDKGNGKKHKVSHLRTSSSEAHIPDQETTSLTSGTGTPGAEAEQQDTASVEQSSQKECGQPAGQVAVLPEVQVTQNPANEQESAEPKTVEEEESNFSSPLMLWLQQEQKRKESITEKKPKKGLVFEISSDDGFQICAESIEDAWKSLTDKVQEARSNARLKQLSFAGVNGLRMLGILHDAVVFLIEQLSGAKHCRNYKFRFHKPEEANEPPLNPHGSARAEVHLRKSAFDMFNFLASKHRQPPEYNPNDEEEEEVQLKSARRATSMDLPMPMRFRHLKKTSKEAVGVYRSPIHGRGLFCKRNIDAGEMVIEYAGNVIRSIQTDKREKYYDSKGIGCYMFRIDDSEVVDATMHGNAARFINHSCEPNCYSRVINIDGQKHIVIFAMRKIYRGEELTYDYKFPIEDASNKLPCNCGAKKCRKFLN
Sequence of Serine/threonine-protein kinase 24 (Homo sapiens) (Q9Y6E0 whole entry, looked up): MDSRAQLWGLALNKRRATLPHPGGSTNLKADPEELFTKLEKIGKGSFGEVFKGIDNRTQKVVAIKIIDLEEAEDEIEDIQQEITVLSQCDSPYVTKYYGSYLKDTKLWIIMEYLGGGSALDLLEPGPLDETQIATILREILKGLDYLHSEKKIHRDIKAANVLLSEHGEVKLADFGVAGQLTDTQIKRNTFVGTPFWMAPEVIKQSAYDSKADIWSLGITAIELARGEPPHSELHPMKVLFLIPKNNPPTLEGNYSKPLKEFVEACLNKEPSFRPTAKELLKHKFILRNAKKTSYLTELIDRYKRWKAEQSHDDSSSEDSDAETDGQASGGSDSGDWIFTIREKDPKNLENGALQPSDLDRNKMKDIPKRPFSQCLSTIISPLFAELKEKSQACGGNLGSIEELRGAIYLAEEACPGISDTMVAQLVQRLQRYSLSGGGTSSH

On to `CN(C)C/C=C/C(=O)Nc1ccc(C(=O)N2CCCC(Nc3ncc(Cl)c(-c4c[nH]c5ccccc45)n3)C2)cc1` (configuration not stated), for which, in assay [1], the % of control was found to be 89%.

In turn, `CCN(CC)CCCCNc1ncc2cc(-c3cc(OC)cc(OC)c3)c(NC(=O)NC(C)(C)C)nc2n1` came in with a % of control in assay [2] of 7%. The compound `CN(C)CCOc1ccc(-c2nc(-c3ccncc3)c(-c3ccc4c(c3)CC/C4=N\O)[nH]2)cc1` returned a % of control in assay [3] of 63%.

In the case of `Cc1cc(CN)cc(C)c1-c1ncn(C)c1-c1cncn1C`, in assay [4], the dTM was -1.04 K. For `Cn1cc(-n2cnc3c(NCc4nc5cc(Cl)c(Cl)cc5[nH]4)nc(N4CCOCC4)nc32)cn1`, the % of control in assay [5] came out at 7.05%. On to `COc1cc(N(C)c2ccnc3ccc(C(F)(F)F)cc23)cc(OC)c1OC`, for which the % binding in assay [6] is 97%. On to `N#Cc1cccc(-c2c[nH]c3ncnc(N4CCOCC4)c23)c1`, for which the % of inhibition in assay [7] was -9%.
